Assay results: patent US20090082341A1 (SYNOSIA THERAPEUTICS, priority 2007, published 2009)

Key:
adenosine transporter = experiment: Selectivity radioligand binding panel, adenosine transporter; details: at 10 μM
From the text: See FIG. 22-25 for general procedures of binding assays. See FIG. 26-32 for experimental conditions of binding assays.
The specific ligand binding to the receptors is defined as the difference between the total binding and the nonspecific binding determined in the presence of an excess of unlabelled ligand.
Individual and mean values are presented in the results section. The IC50 values (concentration causing a half-maximal inhibition of control specific binding) and Hill coefficients (nH) were determined by non-linear regression analysis of the competition curves using Hill equation curve fitting.
The inhibition constants (Ki) were calculated from the Cheng Prusoff equation (Ki=IC50/(1+(L/KD)), where L=concentration of radioligand in the assay, and KD=affinity of the radioligand for the receptor).

[1] = system: phosphodiesterase (IV) enzyme; experiment: Enzyme assay panel, phosphodiesterase (IV); type: biochemical; details: at 10 μM
Method: The IC50 values (concentration causing a half-maximal inhibition of control values), EC50 values (concentration causing a half-maximal stimulation of control values) and Hill coefficients (nH) were determined by non-linear regression analysis of the concentration-response curves using Hill equation curve fitting. See FIG. 33 for general procedures and FIG. 34-36 for experimental conditions for enzyme assays.
It was tested at several concentrations (for IC50 or EC50 value determination), and the data were compared with historical values determined at Cerep.

male Wistar rats = experiment: APEC-induced hypolocomotion test; type: in vivo, rat
Method: APEC (2-[(2-aminoethylamino)carbonylethyl-phenyl-ethylamino]-5′-ethylcarboxamido-adenosine), an A2A receptor agonist, reduces spontaneous motor activity in a dose-dependent manner. APEC-induced hypolocomotion is attenuated by selective A2A receptor antagonists but not by selective A1 receptor antagonists.
Control animals received vehicle only or vehicle and APEC. The animals were placed in plexiglass test cages with arrays of photocells linked to a computer, and motor activity was recorded for 15 min. Data are mean±SEM based on 8 animals per group.
APEC (2-[(2-aminoethylamino)carbonylethyl-phenyl-ethylamino]-5′-ethylcarboxamidoadenosine) is an adenosine A2A receptor agonist which reduces spontaneous motor activity in a dose-dependent manner. APEC-induced hypolocomotion is attenuated by selective A2A receptor antagonists but not by selective A1 receptor antagonists (Marston H M et al. Pharmacological characterization of a simple behavioral response mediated selectively by central adenosine A1 receptors, using in vivo and in vitro techniques. J Pharm Exp Ther. 1998; 285:1023-1030.)
Male adult Wistar rats (HanBrl: Wist (SPF) RCC) weighing approximately 140-200 g were used. The animals were housed in groups of four in Macrolon Type 3 cages (810 cm^2) with sawdust bedding. Tap water and standard laboratory chow (Ratte Alleinfutter, extrudat No 3436; Provimikliba Kaiseraugst, Switzerland) were continuously available except during testing. The animal quarters were maintained on a 12:12 hr light-dark cycle with light onset at 6 a.m. Room temperature (21-23° C.) and humidity (55-65%) were kept constant. At the conclusion of testing, rats were euthanized by means of CO2 inhalation. […]
Locomotor activity was monitored with a Digiscan Animal Activity Monitoring system (Model RXYZCM Omnitech Electronics, Columbus, Ohio). […] Ten minutes after APEC administration, animals were then placed in the test cages where horizontal activity was recorded for 15 min. […]
Data was analyzed by Kruskal-Wallis ANOVA followed by Mann-Whitney U-test. […]

[2] = po, 2 h before recording, APEC 0.01 mg/kg sc

## COc1ccc(N2CCOCC2)c2sc(NC(=O)N3CCC(C)(O)CC3)nc12 [4-hydroxy-4-methyl-piperidine-1-carboxylic acid (4-methoxy-7-morpholin-4-yl-benzothiazol-2-yl)-amide]
Adenosine transporter
  displacement at the adenosine transporter: 55%
[1]
  inhibition of phosphodiesterase (IV) enzyme: 88%
Male Wistar rats; 0.3 to 10 mg/kg po, vs vehicle + APEC
  effect on APEC-induced deficits in locomotor activity: significantly reduced
Male Wistar rats; [2]
  ID50, reversal of APEC-induced deficits in locomotor activity: 0.5 mg/kg
  ID90, reversal of APEC-induced deficits in locomotor activity: 3.4 mg/kg
